# Where “and” joins values, the source holds several entries; their conditions need not be identical. Identical values can stand only once. Like-named read-outs stand apart in the source and are kept apart here.
# Key:
# OCI-AML5 cells = assay: Dose-response proliferative assay in OCI-AML5 (4 days, CellTiterGlo); assay type: cell-based, H. sapiens; settings: OCI-AML5 cells; read-out: IC50 in AML5
# In short: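 OCI-AML5 cells in αMEM, 10% heat-inactivated FBS plus 10 ng/mL GM-CSF, 300 cells/well, exposed to 8-point 1:4 serial dilutions (10 μM down to 0.5 nM). Viability read after 4 days in culture at 37 °C, 5% CO2.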
# cyclin KeGFP = assay: Cyclin KeGFP reporter system (eGFP/mCherry MFI by flow cytometry);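 as to % degradation cyclin K-eGFP: 10 μM compound for 3 h relative to DMSO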; assay type: cell-based, H. sapiens
# In short: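 OCI-AML5 clone G7 carrying lentiviral cyclin KeGFP/mCherry reporter. eGFP and mCherry geometric MFI measured by flow cytometry; eGFP/mCherry ratio normalized to DMSO-treated cells.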
# CDK12/Cyclin K = target: T1, CDK12/Cyclin K (Homo sapiens, UniProt Q9NYV4); assay: CDK12/CyclinK in vitro kinase assay (BPS kit, Kinase Glo MAX); assay type: biochemical; settings: in % (unit assumed)
# T1 construct: purchased BPS Bioscience 78298
# Protocol: (§1) Kinase activity was assessed using the kinase assay kits from BPS Bioscience for CDK1, CDK9 and CDK12 with Kinase Glo MAX in duplicates. Compounds were tested at a single concentration of 1 μM for CDK1 and CDK9 activity, and in a dilution ranging from 0.64 nM to 50 μM for CDK12 activity. Chemiluminescence was read using the Neo Synergy BioTek plate reader.
# primary AML specimens = assay: Dose-response assays in primary AML specimens (6 days, CellTiterGlo); assay type: cell-based, human; settings: 6 days, read-out: IC50
# In short: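 Primary AML cells in IMDM/15% BIT with SCF, FLT3L, IL3, G-CSF, SR1 and UM729 were exposed to 8-point 1:4 dilutions (10 μM to 0.5 nM) for 6 days. Viability came from CellTiterGlo luminescence, with % inhibition versus DMSO (0.1%) fitted by nonlinear regression.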
# CDK9/CyclinT = target: T2, CDK9/CyclinT (Homo sapiens, UniProt P50750); assay: CDK9/CyclinT in vitro kinase activity, single concentration 1 μM; assay type: biochemical; settings: single concentration 1 μM
# T2 construct: purchased BPS Bioscience 79628
# Protocol: as §1
# [1] = test system: OCI-AML5 cells expressing shRNAs targeting CDK1, 2, 4, 7, 9, cyclin K; assay: Dose response in OCI-AML5 expressing shRNAs targeting CDK1, 2, 4, 7, 9, cyclin K or control; assay type: cell-based, H. sapiens; settings: for IC50: OCI-AML5, 4 days
# T1 sequence (Q9NYV4 whole entry): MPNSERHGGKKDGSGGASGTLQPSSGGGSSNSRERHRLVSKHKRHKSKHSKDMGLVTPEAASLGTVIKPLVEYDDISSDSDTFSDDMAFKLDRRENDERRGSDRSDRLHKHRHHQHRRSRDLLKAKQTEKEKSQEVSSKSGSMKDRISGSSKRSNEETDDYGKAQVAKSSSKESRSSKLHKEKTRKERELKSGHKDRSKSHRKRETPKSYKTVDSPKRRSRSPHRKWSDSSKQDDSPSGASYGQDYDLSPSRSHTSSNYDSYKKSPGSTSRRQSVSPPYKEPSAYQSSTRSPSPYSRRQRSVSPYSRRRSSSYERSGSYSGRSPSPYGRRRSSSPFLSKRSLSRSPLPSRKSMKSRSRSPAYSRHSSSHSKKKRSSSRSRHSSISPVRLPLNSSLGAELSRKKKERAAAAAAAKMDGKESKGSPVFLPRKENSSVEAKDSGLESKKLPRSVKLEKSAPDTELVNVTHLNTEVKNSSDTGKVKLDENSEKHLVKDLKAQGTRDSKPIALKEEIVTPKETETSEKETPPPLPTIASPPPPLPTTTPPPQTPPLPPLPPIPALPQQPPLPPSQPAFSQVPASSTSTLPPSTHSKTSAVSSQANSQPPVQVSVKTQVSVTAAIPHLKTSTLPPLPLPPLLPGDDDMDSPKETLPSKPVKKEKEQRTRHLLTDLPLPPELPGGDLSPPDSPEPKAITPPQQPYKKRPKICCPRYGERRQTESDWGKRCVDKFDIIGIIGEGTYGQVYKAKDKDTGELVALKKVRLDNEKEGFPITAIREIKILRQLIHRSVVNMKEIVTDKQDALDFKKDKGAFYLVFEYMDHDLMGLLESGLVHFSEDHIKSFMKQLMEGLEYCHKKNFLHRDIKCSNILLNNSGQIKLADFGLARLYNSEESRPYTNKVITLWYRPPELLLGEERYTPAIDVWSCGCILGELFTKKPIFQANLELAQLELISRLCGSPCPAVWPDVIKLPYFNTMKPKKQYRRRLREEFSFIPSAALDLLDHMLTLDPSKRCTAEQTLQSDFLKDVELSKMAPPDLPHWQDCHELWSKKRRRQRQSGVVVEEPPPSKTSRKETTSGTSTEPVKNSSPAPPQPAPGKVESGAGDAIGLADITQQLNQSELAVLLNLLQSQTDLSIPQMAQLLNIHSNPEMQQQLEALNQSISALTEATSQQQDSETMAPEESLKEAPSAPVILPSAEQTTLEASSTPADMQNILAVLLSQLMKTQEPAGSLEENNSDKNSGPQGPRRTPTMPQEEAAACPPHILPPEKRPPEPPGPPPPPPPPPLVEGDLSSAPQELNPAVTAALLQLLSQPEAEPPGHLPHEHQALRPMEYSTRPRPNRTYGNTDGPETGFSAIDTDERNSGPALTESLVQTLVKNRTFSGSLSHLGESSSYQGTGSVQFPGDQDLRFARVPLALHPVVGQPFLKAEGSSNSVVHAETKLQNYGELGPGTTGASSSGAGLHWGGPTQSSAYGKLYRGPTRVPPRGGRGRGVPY
# T1 sequence (O75909 whole entry partner): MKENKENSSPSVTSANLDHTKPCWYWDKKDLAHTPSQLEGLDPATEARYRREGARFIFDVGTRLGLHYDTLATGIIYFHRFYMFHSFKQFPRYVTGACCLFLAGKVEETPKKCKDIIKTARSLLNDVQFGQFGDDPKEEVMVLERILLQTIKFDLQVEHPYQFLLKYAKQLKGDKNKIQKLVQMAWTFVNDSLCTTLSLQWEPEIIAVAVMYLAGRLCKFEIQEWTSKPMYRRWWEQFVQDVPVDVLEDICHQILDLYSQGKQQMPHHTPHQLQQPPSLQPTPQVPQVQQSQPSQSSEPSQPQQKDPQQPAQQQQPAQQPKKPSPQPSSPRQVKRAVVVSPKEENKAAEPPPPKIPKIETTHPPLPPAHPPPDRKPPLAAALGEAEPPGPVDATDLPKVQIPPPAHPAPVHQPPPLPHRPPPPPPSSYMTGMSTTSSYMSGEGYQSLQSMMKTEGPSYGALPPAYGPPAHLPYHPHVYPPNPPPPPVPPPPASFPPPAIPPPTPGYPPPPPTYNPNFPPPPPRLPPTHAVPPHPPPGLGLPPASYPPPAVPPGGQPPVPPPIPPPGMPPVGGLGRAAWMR
# T2 sequence (P50750 whole entry): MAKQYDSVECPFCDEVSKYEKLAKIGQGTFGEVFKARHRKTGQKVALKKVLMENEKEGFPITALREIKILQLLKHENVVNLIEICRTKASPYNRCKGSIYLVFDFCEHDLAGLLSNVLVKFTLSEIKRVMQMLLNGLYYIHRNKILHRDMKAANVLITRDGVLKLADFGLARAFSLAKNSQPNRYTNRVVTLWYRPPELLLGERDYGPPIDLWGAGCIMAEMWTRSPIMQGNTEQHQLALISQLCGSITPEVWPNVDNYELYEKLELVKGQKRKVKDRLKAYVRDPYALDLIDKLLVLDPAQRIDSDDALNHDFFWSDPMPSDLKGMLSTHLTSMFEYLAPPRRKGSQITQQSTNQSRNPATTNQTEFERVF
# T2 sequence (O60563 whole entry partner): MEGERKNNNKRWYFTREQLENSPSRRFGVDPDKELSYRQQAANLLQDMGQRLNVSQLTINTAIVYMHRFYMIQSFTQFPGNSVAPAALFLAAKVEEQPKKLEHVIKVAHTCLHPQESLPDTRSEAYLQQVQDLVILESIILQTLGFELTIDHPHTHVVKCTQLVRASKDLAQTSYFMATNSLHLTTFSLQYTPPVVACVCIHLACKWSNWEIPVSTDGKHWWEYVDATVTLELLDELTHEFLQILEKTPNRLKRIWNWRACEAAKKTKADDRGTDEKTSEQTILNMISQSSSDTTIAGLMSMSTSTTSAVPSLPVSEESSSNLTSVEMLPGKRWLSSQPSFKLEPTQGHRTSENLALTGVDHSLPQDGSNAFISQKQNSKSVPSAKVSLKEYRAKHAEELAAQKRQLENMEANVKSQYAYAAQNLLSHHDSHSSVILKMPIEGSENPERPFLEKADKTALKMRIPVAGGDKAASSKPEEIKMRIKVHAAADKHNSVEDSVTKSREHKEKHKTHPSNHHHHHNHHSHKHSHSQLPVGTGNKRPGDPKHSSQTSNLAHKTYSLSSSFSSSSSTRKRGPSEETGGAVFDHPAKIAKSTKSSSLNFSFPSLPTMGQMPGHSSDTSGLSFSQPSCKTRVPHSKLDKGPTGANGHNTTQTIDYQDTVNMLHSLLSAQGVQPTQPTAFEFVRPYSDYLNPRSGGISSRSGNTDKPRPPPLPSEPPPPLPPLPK
smiles,measurement,setting,value
CC[C@H](CO)Nc1nc(NCc2ccc(-c3ccccn3)cc2)c2ncn(C(C)C)c2n1 [CR8],IC50,OCI-AML5 cells,56 nM
same,MFI of cyclin KeGFP over mCherry,"cyclin KeGFP; OCI-AML5 G7 clone, 3 h, 10 μM, normalized to DMSO (=100)",13.6 and 15.4 and 15.2 and 15.3 and 14.9
same,% degradation cyclin K-eGFP,cyclin KeGFP; cyclin K-eGFP reporter,86%
same,in vitro inhibition of CDK12/Cyclin K activity,CDK12/Cyclin K; Log10 (uM) 1,58.77 and 64.89 and 109.89
same,in vitro inhibition of CDK12/Cyclin K activity,CDK12/Cyclin K; Log10 (uM) 1.69897,81.16 and 77.06 and 130.98
same,in vitro inhibition of CDK12/Cyclin K activity,CDK12/Cyclin K; Log10 (uM) -0.39794,16.88 and 18.59 and 15.49
same,IC50,primary AML specimens; primary AML specimen 03H109,48.5 nM
same,IC50,primary AML specimens; primary AML specimen 04H055,123 nM
same,IC50,primary AML specimens; primary AML specimen 04H096,55 nM
same,IC50,primary AML specimens; primary AML specimen 04H138,127 nM
same,IC50,primary AML specimens; primary AML specimen 05H113,48.9 nM
same,IC50,primary AML specimens; primary AML specimen 05H149,66.3 nM
same,IC50,primary AML specimens; primary AML specimen 05H193,63.3 nM
same,IC50,primary AML specimens; primary AML specimen 06H088,74.7 nM
same,IC50,primary AML specimens; primary AML specimen 06H117,60.2 nM
same,IC50,primary AML specimens; primary AML specimen 06H151,43 nM
same,IC50,primary AML specimens; primary AML specimen 07H003,129 nM
same,IC50,primary AML specimens; primary AML specimen 07H131,154 nM
same,IC50,primary AML specimens; primary AML specimen 07H144,51.9 nM
same,IC50,primary AML specimens; primary AML specimen 07H155,144 nM
same,IC50,primary AML specimens; primary AML specimen 08H018,124 nM
same,IC50,primary AML specimens; primary AML specimen 08H021,53.6 nM
same,IC50,primary AML specimens; primary AML specimen 08H056,136 nM
same,IC50,primary AML specimens; primary AML specimen 08H063,149 nM
same,IC50,primary AML specimens; primary AML specimen 08H085,63.1 nM
same,IC50,primary AML specimens; primary AML specimen 08H108,126 nM
same,IC50,primary AML specimens; primary AML specimen 08H118,50.2 nM
same,IC50,primary AML specimens; primary AML specimen 09H016,51.5 nM
same,IC50,primary AML specimens; primary AML specimen 09H070,140 nM
same,IC50,primary AML specimens; primary AML specimen 10H014,38.9 nM
same,IC50,primary AML specimens; primary AML specimen 10H046,59.9 nM
same,IC50,primary AML specimens; primary AML specimen 10H107,76.8 nM
same,IC50,primary AML specimens; primary AML specimen 10H127,93.5 nM
same,IC50,primary AML specimens; primary AML specimen 10H161,75.2 nM
same,IC50,primary AML specimens; primary AML specimen 10H174,54.8 nM
same,IC50,primary AML specimens; primary AML specimen 11H008,85.8 nM
same,IC50,primary AML specimens; primary AML specimen 11H019,69.4 nM
same,IC50,primary AML specimens; primary AML specimen 11H170,162 nM
same,IC50,primary AML specimens; primary AML specimen 11H217,128 nM
same,IC50,primary AML specimens; primary AML specimen 11H232,70.1 nM
same,IC50,primary AML specimens; primary AML specimen 12H033,107 nM
same,IC50,primary AML specimens; primary AML specimen 12H055,100 nM
same,IC50,primary AML specimens; primary AML specimen 12H148,74.2 nM
same,IC50,primary AML specimens; primary AML specimen 13H053,133 nM
same,IC50,primary AML specimens; primary AML specimen 15H045,43.7 nM
same,IC50,primary AML specimens; primary AML specimen 17H065,92.3 nM
same,% CDK9 inhibition,CDK9/CyclinT,100%
same,IC50,"[1]; read-out: IC50, sh CDK1",69.6 nM and 111 nM and 91.9 nM
same,IC50,"[1]; read-out: IC50, sh CDK2",67.6 nM and 80.5 nM and 96.4 nM
same,IC50,"[1]; read-out: IC50, sh CDK4",61.8 nM and 75.2 nM and 63.5 nM
same,IC50,"[1]; read-out: IC50, sh CDK7",61.1 nM and 84.1 nM and 69.1 nM
same,IC50,"[1]; read-out: IC50, sh CDK9",55.2 nM and 60.8 nM and 44.9 nM
same,IC50,"[1]; read-out: IC50, sh Cyclin K",13.1 nM and 15.5 nM and 20.6 nM
same,IC50,"[1]; read-out: IC50, sh ctrl",55.8 nM and 70.4 nM and 56.2 nM
same,Class,[1]; class from shRNA IC50 profile and cyclin K-eGFP degradation,1

# Source: PMC12152147, “DDB1 engagement defines the selectivity of S656 analogs for cyclin K degradation over CDK inhibition” (EMBO Reports, 2025)
